Legend:
[1] = system: CTG repeat expansion in the 3′ UTR of human DMPK gene; experiment: DOUBLE-cut screening: CTG repeat excision by loss-of-signal ddPCR in primary DM1 patient myoblasts; assay type: cell-based; conditions: sgRNA pair RNP, mean of upstream and downstream ddPCR assays; for % of CTG repeat excision efficiency by ddPCR (DNA-PKi): 3 μM Compound 6 for 48 hrs; for % of CTG repeat excision efficiency by ddPCR (Vehicle): DMSO 48 hrs
Protocol: (§1) RNPs were assembled with recombinant SaCas9 protein (Aldevron) and chemically modified sgRNAs (Synthego) at a ratio of 1:3 (protein:sgRNA). For SINGLE-cut screening, RNP complexes were assembled with 30 pmol of SaCas9 and 90 pmol of sgRNA in P5 Primary Cell Nucleofector Solution (Lonza). After incubation at room temperature for 20 minutes, 10 μL of RNP complex was mixed with two hundred thousand primary myoblasts resuspended in 10 μL of P5 Nucleofector Solution. For DOUBLE-cut screening, RNP complexes were first assembled for individual sgRNAs with 20 pmol of SaCas9 protein and 60 pmol of sgRNAs in 5 μL of P5 Nucleofector Solution. After incubation at room temperature for 20 minutes, the two RNP complexes (one for upstream sgRNA and one for downstream sgRNA) were mixed at 1:1 ratio and then further mixed with two hundred thousand primary myoblasts resuspended in 10 μL of P5 Nucleofector Solution.
(§2) The Nucleofector 96-well Shuttle System (Lonza) was used to deliver the SaCa9/sgRNA RNPs into primary DM1 patient myoblasts using the nucleofection program CM138. Following nucleofection, myoblasts from each well of nucleofection shuttle were split into six wells of the 96-well cell culture plate (Greiner, 655090) coated with matrigel. The first three wells were treated with DMSO for 48 hrs before changing to fresh myoblast growth medium, and the other three wells were treated with 3 μM of DNA-PKi Compound 6 for 48 hrs before changing to fresh myoblast growth medium. 72 hrs post nucleofection, two wells of DMSO-treated myoblasts and two wells of DNA-PKi-treated myoblasts from each nucleofection were harvested for genomic DNA extraction using the Kingfisher Flex purification system (Thermal Fisher), whereas one well of DMSO-treated myoblasts and one well of DNA-PKi-treated myoblasts were stained for RNA foci by FISH staining.
The primers and probes of ddPCR were designed using the online primer design software Primer3Plus (http://www.bioinformatics.nl/cgi-bin/primer3plus/primer3plus.cgi). The two Target primers/probe sets were used to detect CTG repeat excision, and the Reference primers/probe set was used to amplify a region located in Exon 1 of human DMPK gene and it served as a reference control for the Target sets. The 24 μL of ddPCR reaction consisted of 12 μL of Supermix for Probes (no dUTP) (Bio-Rad Laboratories), 1 μL of Reference primers mix (21.6 μM), 1 μL of Reference probe (6 μM), 1 μL of Target primers mix (21.6 μM), 1 μL of Target probe (6 μM), and 8 μL of sample genomic DNA. Droplets were generated using probe oil with the QX200 Droplet Generator (Bio-Rad Laboratories). Droplets were transferred to a 96-well PCR plate, sealed and cycled in a C1000 deep well Thermocycler (Bio-Rad Laboratories) under the following cycling protocol: 1 cycle at 95° C. for 10 min; 40 cycles of 94° C. for 30 sec, and 58° C. for 1 min; 1 cycle at 98° C. for 10 min (for enzyme inactivation). The cycled plate was then transferred and read in the FAM and HEX channels using the Bio-Rad QX200 Droplet Reader (Bio-Rad Laboratories). ddPCR analysis was performed with the Bio-Rad QuantaSoft Pro Software.
Next, DOUBLE-cut screening was performed to assess the efficiency of paired sgRNAs-induced CTG repeat excision and RNA foci reduction. 90 SaCas9 sgRNA pairs formed by one upstream sgRNA and one downstream sgRNA were assembled with recombinant SaCas9 protein into RNP complex and nucleofected into primary DM1 patient myoblasts. Nucleofected myoblasts were treated with either DMSO (vehicle) or 3 μM of Compound 6 (DNA-PKi) for 48 hrs. 72 hrs post nucleofection, myoblasts were subjected to either genomic DNA isolation or RNA foci staining.
One upstream and one downstream loss-of-signal droplet digital PCR (ddPCR) assays were used to determine the efficiency of CTG repeat excision. ddPCR signals would be abolished upon excision of the CTG repeat expansion in these loss-of-signal ddPCR assays. […]

[2] = system: CUG RNA foci in primary DM1 patient myoblasts; experiment: DOUBLE-cut screening: FISH staining of RNA foci in primary DM1 patient myoblasts; assay type: cell-based, human; conditions: sgRNA pair RNP, 72 hrs post nucleofection; for % of CUG foci free nuclei (DNA-PKi): 3 μM Compound 6 for 48 hrs; for % of CUG foci free nuclei (Vehicle): DMSO 48 hrs
Protocol: as §1, §2
Primary myoblasts were fixed for 15 min with 4% paraformaldehyde (PFA) and washed five times with 1×PBS for 10 min each at room temperature. Before staining, cells were permeabilized with 0.5% triton X-100 in 1×PBS for 5 min at room temperature, and then washed with 30% formamide and 2× saline-sodium citrate (SSC) mixture for 10 min at room temperature. Cells were then stained with 1 ng/μL of Cy3-PNA(CAG) 5 probe (PNA Bio, F5001) diluted in 30% formamide, 2×SSC, 2 μg/mL BSA, 66 μg/mL yeast tRNA, and 2 mM vanadyl complex for 15 min at 80° C. Following probe staining, cells were then washed in 30% formamide and 2×SSC mixture for 30 min at 42° C., then washed in 30% formamide and 2×SSC mixture for 30 min at 37° C., and then washed in 1×SSC solution for 10 min at room temperature, and finally washed in 1×PBS for 10 min at room temperature. Cells were next stained with anti-MBNL1 antibody (Santa Cruz, 3A4) diluted in 1% bovine serum albumin (BSA) for overnight at 4° C., and washed twice with 1×PBS for 10 min each at room temperature. Cells were then incubated with the secondary antibody goat […] Alexa 647 (Thermo Fisher, A32728) diluted in 1% BSA for 1 hr at room temperature, and washed twice with 1×PBS for 10 min each at room temperature. Next, cells were stained with Hoechst solution (Thermo Fisher, H3569) at 0.1 mg/ml for 5 min, and washed once with 1×PBS for 5 min. PBS was aspirated and fresh 100 μl of fresh PBS was added to each well. High-throughput acquisition of images was completed with the ImageXpress Micro Confocal High-Content Imaging System (Molecular Devices). RNA foci quantifications were accomplished with a customized analysis module of the MetaXpress program (Molecular Devices).
Next, DOUBLE-cut screening was performed to assess the efficiency of paired sgRNAs-induced CTG repeat excision and RNA foci reduction. 90 SaCas9 sgRNA pairs formed by one upstream sgRNA and one downstream sgRNA were assembled with recombinant SaCas9 protein into RNP complex and nucleofected into primary DM1 patient myoblasts. […]

| Substance | % of CTG repeat excision efficiency by ddPCR (DNA-PKi) [1] | % of CTG repeat excision efficiency by ddPCR (Vehicle) [1] | % of CUG foci free nuclei (DNA-PKi) [2] | % of CUG foci free nuclei (Vehicle) [2] |
| --- | --- | --- | --- | --- |
| SaU1 + SaD2: SaCas9 sgRNA pair, SEQ ID NOs: 1 and 10 (guide 1 GCCCCGGAGTCGAAGACAGTTC; guide 2 TCGGCCAGGCTGAGGCCCTGAC; listed as DNA, chemistry not fully specified) | 54.31% | 47.82% | 84.27% | 76.74% |
| SaU1 + SaD3: SaCas9 sgRNA pair, SEQ ID NOs: 1 and 11 (guide 1 GCCCCGGAGTCGAAGACAGTTC; guide 2 CAACGATAGGTGGGGGTGCGTG; listed as DNA, chemistry not fully specified) | 52.18% | 33.47% | 81.32% | 47.32% |
| SaU1 + SaD4: SaCas9 sgRNA pair, SEQ ID NOs: 1 and 12 (guide 1 GCCCCGGAGTCGAAGACAGTTC; guide 2 ACTTTGCGAACCAACGATAGGT; listed as DNA, chemistry not fully specified) | 61.00% | 41.92% | 87.86% | 81.45% |
| SaU1 + SaD5: SaCas9 sgRNA pair, SEQ ID NOs: 1 and 13 (guide 1 GCCCCGGAGTCGAAGACAGTTC; guide 2 GGGTTTGGCAAAAGCAAATTTC; listed as DNA, chemistry not fully specified) | 53.67% | 30.65% | 82.90% | 70.23% |
| SaU1 + SaD6: SaCas9 sgRNA pair, SEQ ID NOs: 1 and 14 (guide 1 GCCCCGGAGTCGAAGACAGTTC; guide 2 CTTTTGCCAAACCCGCTTTTTC; listed as DNA, chemistry not fully specified) | 49.69% | 32.51% | 70.98% | 31.66% |
| SaU1 + SaD7: SaCas9 sgRNA pair, SEQ ID NOs: 1 and 15 (guide 1 GCCCCGGAGTCGAAGACAGTTC; guide 2 GGGGCGCGGGATCCCCGAAAAA; listed as DNA, chemistry not fully specified) | 56.69% | 34.21% | 80.16% | 49.51% |
| SaU1 + SaD10: SaCas9 sgRNA pair, SEQ ID NOs: 1 and 18 (guide 1 GCCCCGGAGTCGAAGACAGTTC; guide 2 TTGGGGGTCCTGTAGCCTGTCA; listed as DNA, chemistry not fully specified) | 61.44% | 37.72% | 84.12% | 75.91% |
| SaU1 + SaD11: SaCas9 sgRNA pair, SEQ ID NOs: 1 and 19 (guide 1 GCCCCGGAGTCGAAGACAGTTC; guide 2 CAAAACGTGGATTGGGGTTGTT; listed as DNA, chemistry not fully specified) | 52.38% | 26.52% | 74.03% | 41.32% |
| SaU1 + SaD12: SaCas9 sgRNA pair, SEQ ID NOs: 1 and 20 (guide 1 GCCCCGGAGTCGAAGACAGTTC; guide 2 TCAGTGCATCCAAAACGTGGAT; listed as DNA, chemistry not fully specified) | 63.43% | 37.77% | 84.94% | 69.78% |
| SaU1 + SaD13: SaCas9 sgRNA pair, SEQ ID NOs: 1 and 21 (guide 1 GCCCCGGAGTCGAAGACAGTTC; guide 2 CCCAACAACCCCAATCCACGTT; listed as DNA, chemistry not fully specified) | 54.59% | 25.67% | 74.44% | 35.75% |
| SaU7 + SaD2: SaCas9 sgRNA pair, SEQ ID NOs: 7 and 10 (guide 1 CGCGGCCGGCGAACGGGGCTCG; guide 2 TCGGCCAGGCTGAGGCCCTGAC; listed as DNA, chemistry not fully specified) | – | – | 81.28% | 70.29% |
| SaU8 + SaD2: SaCas9 sgRNA pair, SEQ ID NOs: 8 and 10 (guide 1 GGCTCGAAGGGTCCTTGTAGCC; guide 2 TCGGCCAGGCTGAGGCCCTGAC; listed as DNA, chemistry not fully specified) | – | – | 82.91% | 76.39% |

— US20240181081A1, “Compositions and Methods for Treatment of Myotonic Dystrophy Type 1 with CRISPR/SACAS9” (Vertex Pharmaceuticals Incorporated, priority 2021, published 2024)
